Assays:
NF-κB = NF-κB heterologous promoter (pκB.Luc) luciferase reporter in bovine endothelial cells; assay type: cell-based
Procedure: FIG. 2 is a set of bar graphs of cell-surface enzyme immunoassays. […] The difference between treatment with TNF-α alone and in the presence of [11,12]-EET were statistically significant (*p<0.05, **p<0.01), OD, optical density. […] After stimulation with TNF-α (10 ng/ml) in the presence or absence of EET, promoter activity was determined relative to basal activity. *p<0.01 vs. TNF-α alone.
(§1) To localize cis-acting elements in the VCAM-1 promoter that might mediate the inhibitory effects of [11,12]-EET, we transiently transfected bovine aortic endothelial cells with a −755 bp VCAM-1 promoter construct (DeCaterina et al., 96 J. Clin. Invest. 60 (1995)). Stimulation with TNF-α induced a 13-fold increase in relative VCAM-1 promoter activity that was abolished by cotreatment with [11,12]-EET. […] To confirm that the tandem κB sites in the VCAM-1 promoter are repressed by [11,12]-EET we subcloned them into a heterologous promoter construct containing the SV40 enhancer linked to the luciferase reporter gene (pκB.Luc). Stimulation of transfected endothelial cells with TNF-α induced a 6-fold increase in pκB.Luc promoter activity that was abolished by co-treatment with [11,12]-EET, but not [14,15]-EET (FIG. 2C). […] Compared to transfection with the empty pcDNA3.1 vector, overexpression of CYP2J2 decreased TNF-induced VCAM-1 and pκB.Luc promoter activity by 70-80% which were reversed in the presence of SKF525A (FIG. 2C). Neither transfection with CYP2J2 cDNA alone nor treatment with SKF525A alone affected basal promoter activity.

VCAM-1 promoter = VCAM-1 promoter construct activity in transiently transfected bovine aortic endothelial cells; assay type: cell-based
Text: as §1, with “-755” for “−755”, “SK[…]” for “SKF525A”

[1] = test system: bovine aortic endothelial cells (BAECs); test: Hypoxia-reoxygenation-induced cell injury in BAECs (cell number, LDH release, trypan blue); assay type: cell-based
Procedure: Effects of P450-derived arachidonic acid metabolites on hypoxia-reoxygenalion-induced injury in BAECs. BAECs, either untransfected, or 48 hours after transfection with pcDNA3.1/GFP or pcDNA3.1/CYP2J2, or 10 min after treatment with eicosanoids, epoxide hydrolase inhibitors or vehicle, were exposed to hypoxia (95% nitrogen plus 5% carbon dioxide) for 24 hours, followed by reoxygenation (95% air plus 5% carbon dioxide) for 4 hours using an environmental chamber within a 37° C. incubator. Cells maintained under continuous (28 hours) normoxic conditions served as controls.
EETs were prepared by total chemical synthesis as previously described (Corey el al., 102 J. Am. Chem. Soc. 1433-1435 (1980), Falck et al., 23 Tetrahedron Lett. 1755-1756 (1982)). DHETs were prepared by chemical hydration of EETs as described by Capdevila et al., 187 Methods Enzymol. 386-394 (1990). Synthetic EETs and DHETs were purified by reverse-phase HPLC prior to use. BAECs, grown to ˜85% confluency, were treated with either synthetic [11,12]-EET, [11,12]-DHET, or [14,15]-EET in ethanol vehicle (1 μmol/L each, final concentration) for 10 min prior to exposure to hypoxia-reoxygenation. […] Cells treated with vehicle alone served as controls.
After hypoxia-reoxygenation, the cell number was determined using a hemocytometer and the degree of cell injury was assessed by measuring lactate dehydrogenase release into the culture medium using the CytoTox 96 Non-Radioactive Cytotoxicity Assay Kit (Promega, Madison, Wis.) and by counting the number of trypan blue dye stained cells. Data are expressed as a percentage of values obtained from control cells maintained under normoxic conditions.

F2-isoprostanes = test: Cellular F2-isoprostanes in BAECs exposed to hypoxia-reoxygenation (GC/MS); assay type: cell-based, bovine; conditions: CYP2J2-transfected vs GFP-transfected BAECs
Procedure: F2-Isoprostane levels in BAECs were measured using a modification of the procedure described by Morrow & Roberts, 300 Methods Enzymol. 3-12 (1999). Briefly, cells were collected by treatment with trypsin and stored at −80° C. until analyzed. BHT was added to the freshly-thawed samples to inhibit oxidation during sample processing. The samples (4×10^7 cells) were incubated with KOH for 30 minutes at 40° C. The samples were then acidified to pH 3.0, 3 ng of a d4 8-iso-PGF2α internal standard was added, and the precipitated protein was removed by centrifugation at 375×g. The F2-isoprostanes in the supernatant were concentrated by passage over C18 Sep-pak (Millipore, Marlborough, Mass.), followed by Silica Sep-pak (Millipore) columns. The eluant, containing a mixture of the d4 internal standard and endogenous cellular F2-isoprostanes, was dried under nitrogen and derivatized to the pentaflorobenzyl (PFB) ester using […] according to the protocol of Schweer et al., 32 J. Mass Spectrom. 1362-1370 (1997). The PFB-derivatized isoprostanes were purified by TLC, and the bands were collected based on comparison of their Rf values to those of authentic standards. […] Quantitation was done by GC/NCI/MS on a 25m Supelco DB 5 column (Supelco, Bellefonte, Pa.). […]

[2] = overexpression vs empty pcDNA3.1 vector
[3] = CYP2J2-transfected vs GFP-transfected BAECs

| Compound | effect on TNF-α-induced pκB.Luc promoter activity (NF-κB; 100 nM, TNF-α 10 ng/ml (6-fold increase)) | effect on TNF-α-induced VCAM-1 promoter activity, −755 bp construct (VCAM-1 promoter; cotreatment with TNF-α (13-fold increase)) | hypoxia-reoxygenation-induced cell injury, number of trypan blue stained cells ([1]; 1 μmol/L, added 10 min prior to hypoxia (24 h hypoxia, 4 h reoxygenation)) | hypoxia-reoxygenation-induced increase in cellular F2-isoprostanes (F2-isoprostanes) | decrease of TNF-induced pκB.Luc promoter activity (NF-κB; [2]) | decrease of TNF-induced VCAM-1 promoter activity (VCAM-1 promoter; [2]) | cell number after hypoxia-reoxygenation [1, 3] | lactate dehydrogenase released into culture medium after hypoxia-reoxygenation [1, 3] | trypan blue stained cells after hypoxia-reoxygenation [1, 3] |
| --- | --- | --- | --- | --- | --- | --- | --- | --- | --- |
| CCCCC/C=C\C[C@H]1O[C@H]1C/C=C\C/C=C\CCCC(=O)O [[11,12]-EET] | abolished | abolished | significantly attenuates | – | – | – | – | – | – |
| CYP2J2: CYP2J2 cDNA (1.9 kb) subcloned into plasmid pcDNA3.1, transfected into endothelial cells | – | – | – | significantly attenuated | 70-80% | 70-80% | slightly increased | significantly less | significantly fewer |

Reference: US6916843B1, “Anti-inflammatory actions of cytochrome P450 expoxygenase-derived eicosanoids” (The United States of America as represented by the …, priority 1999, dated 2005)
